Patent publication US12097261B2, “CDK2 degraders and uses thereof” (Kymera Therapeutics, Inc., priority 2021, dated 2024)

Tests used:
Format in all cases: cell-based
[1] = target: T1, CDK2 (Homo sapiens, UniProt P24941); assay: CDK2 degradation by immunoblotting in OVCAR-8 cells; conditions: 24 h
T1 construct: endogenous in cells; host or cells: OVCAR-8
Protocol: (§1) CDK2 and CDK1 Degradation by Immunoblotting
(§2) Ovarian cancer cell line OVCAR-8 were cultured in 12-well plates in complete growth medium. A serial dilution of each compound was added to individual wells from a 2× stock solution, and cells were cultured for 24 hours. Cells were collected by centrifugation, and cell pellets lysed with addition of chilled RIPA buffer supplemented with protease/phosphatase inhibitors followed by incubation for 20 minutes on ice. Lysates were clarified by centrifugation and 5×SDS loading buffer was added to the supernatant followed by heating to 100° C. for 10 minutes. An aliquot of the samples were separated by SDS-PAGE and transferred to a nitrocellulose membrane. Immunoblotting was performed according to standard procedures using anti-CDK2 primary antibody (Abcam ab32147) at 1:1000 dilution and IRDye 800CW goat anti-Rabbit secondary antibody (LICOR) and imaged using a LICOR Odyssey instrument. Blots were stained with anti-beta-Actin primary antibody (Cell Signaling Technology mAb #4970) for normalization. The normalized CDK2/Actin values were calculated as a percent of DMSO treated cells and plotted to determine the concentration at which 50% of CDK2 signal is decreased (DC50). The determination of CDK1 degradation was determined similarly using anti-CDK1 primary antibody (Abcam ab131450).

[2] = target: T2, CCNE1 (Homo sapiens, UniProt P24864+P24941); assay: CCNE1 degradation in MKN-1 cells by immunoblotting; conditions: 24 h, by WB, read-out: Cyclin E1 DC50, (MKN-1 by WB)
T2 construct: endogenous in cells; host or cells: MKN-1
Protocol: CCNE1 Degradation in MKN-1 Cells
Gastric cancer cell line MKN-1 were cultured in 6-well plates in complete growth medium. A serial dilution of each compound was added to individual wells from a 2× stock solution, and cells were cultured for 24 hours. Following 24-hr incubation, cells were lysed with addition of chilled RIPA buffer supplemented with protease/phosphatase inhibitors followed by incubation for 20 minutes on ice. Lysates were clarified by centrifugation and 5×SDS loading buffer was added to the supernatant followed by heating to 100° C. for 10 minutes. An aliquot of the samples were separated by SDS-PAGE and transferred to a nitrocellulose membrane. Immunoblotting was performed according to standard procedures using anti-CCNE1 primary antibody (Abcam #ab33911) at 1:1000 dilution and IRDye 800CW goat anti-Rabbit secondary antibody (LICOR) and imaged using a LICOR Odyssey instrument. Blots were stained with anti-beta-Actin primary antibody (Cell Signaling Technology mAb 43700) for normalization. The normalized CCNE1/Actin values were calculated as a percent of DMSO treated cells and plotted to determine the concentration at which 50% of CCNE1 signal is decreased.

[3] = target: T3, CDK1 (Homo sapiens, UniProt P06493); assay: CDK1 degradation by immunoblotting in OVCAR-8 cells; conditions: 24 h
T3 construct: endogenous in cells; host or cells: OVCAR-8
T3 sequence (P06493 whole entry): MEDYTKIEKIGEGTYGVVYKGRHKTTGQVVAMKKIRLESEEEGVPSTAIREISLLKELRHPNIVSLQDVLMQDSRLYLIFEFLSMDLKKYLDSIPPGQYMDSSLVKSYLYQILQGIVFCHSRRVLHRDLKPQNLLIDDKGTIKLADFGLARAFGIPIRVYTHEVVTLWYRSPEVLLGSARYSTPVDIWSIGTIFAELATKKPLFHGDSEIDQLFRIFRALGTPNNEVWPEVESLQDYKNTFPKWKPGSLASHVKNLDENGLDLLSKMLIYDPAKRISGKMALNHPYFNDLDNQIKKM
Protocol: as §1, §2

Cc1cc(S(=O)(=O)NCCO[C@H]2CC[C@H](CN3CCC(c4ccc5c(c4)n(C)c(=O)n5C4CCC(=O)NC4=O)CC3)CC2)ccc1Nc1ncc2cc(Cl)c(=O)n(C3CCCC3)c2n1 (some centres unmarked) [I-108]
DC50 [1]: < 10 nM
DC50 [2]: < 10 nM
DC50 [3]: 100 to 1000 nM

CC(C)NC(=O)O[C@@H]1CC[C@H](c2cc(NC(=O)c3cnn(CCCCCCCCCCCc4ccc5c(c4)n(C)c(=O)n5C4CCC(=O)NC4=O)c3)[nH]n2)C1 (some centres unmarked) [I-96]
DC50 [1]: 10 to 100 nM
DC50 [3]: > 5000 nM

Cc1cc(S(=O)(=O)N[C@H]2CC[C@H](OCCOCCCc3ccc4c(c3)n(C)c(=O)n4C3CCC(=O)NC3=O)CC2)ccc1Nc1ncc2ccc(=O)n(C3CCCC3)c2n1 (some centres unmarked) [I-110]
DC50 [1]: < 10 nM
DC50 [3]: 1000 to 5000 nM

CC(C)NC(=O)O[C@@H]1CC[C@H](c2cc(NC(=O)c3cc(COCCCCCCCCCc4cccc5c4n(C)c(=O)n5[C@H]4CCC(=O)NC4=O)nn3C)n[nH]2)C1 [I-100]
DC50 [1]: < 10 nM
DC50 [3]: 100 to 1000 nM

CC(C)NC(=O)O[C@H]1CC[C@@H](c2cc(NC(=O)c3ccnn3CCN3CCN(CCOCCCc4ccc5c(c4)n(C)c(=O)n5C4CCC(=O)NC4=O)CC3)[nH]n2)C1 (some centres unmarked) [I-151]
DC50 [1]: 1000 to 5000 nM
DC50 [3]: > 5000 nM

CC(C)NC(=O)O[C@@H]1CC[C@H](c2cc(NC(=O)Cc3cnn(CCCCCCCCCc4ccc5c(c4)n(C)c(=O)n5C4CCC(=O)NC4=O)c3)[nH]n2)C1 (some centres unmarked) [I-102]
DC50 [1]: 10 to 100 nM
DC50 [3]: 100 to 1000 nM

CC(C)NC(=O)O[C@@H]1CC[C@H](c2cc(NC(=O)c3cnn(CCCCCCCCCc4ccc5c(c4)n(C)c(=O)n5C4CCC(=O)NC4=O)c3)n[nH]2)C1 (some centres unmarked) [I-91]
DC50 [1]: 10 to 100 nM
DC50 [3]: > 5000 nM

CC(C)NC(=O)O[C@@H]1CC[C@H](c2cc(NC(=O)c3cc(COCCCCCCCCCc4ccc5c(c4)n(C)c(=O)n5[C@H]4CCC(=O)NC4=O)nn3C)n[nH]2)C1 [I-99]
DC50 [1]: < 10 nM
DC50 [3]: > 5000 nM

Cc1cc(S(=O)(=O)N2CCC(CN(C)C3CCN(c4cccc5c4n(C)c(=O)n5C4CCC(=O)NC4=O)CC3)CC2)ccc1Nc1ncc2ccc(=O)n(C3CCCC3)c2n1 (centres unmarked) [I-114]
DC50 [1]: < 10 nM
DC50 [3]: 1000 to 5000 nM

CC(C)NC(=O)O[C@@H]1CC[C@H](c2cc(NC(=O)c3cnn(CCOCCOCCOCCCc4ccn5c(N6CCC(=O)NC6=O)cnc5c4)c3)n[nH]2)C1 [I-74]
DC50 [1]: 100 to 1000 nM
DC50 [3]: > 5000 nM

Cc1cc(S(=O)(=O)NCCOC2CCC3(CC2)CCN(CCCc2ccc4c(c2)n(C)c(=O)n4C2CCC(=O)NC2=O)CC3)ccc1Nc1ncc2ccc(=O)n(C3CCCC3)c2n1 (centres unmarked) [I-124]
DC50 [1]: < 10 nM
DC50 [3]: 1000 to 5000 nM

CC(C)NC(=O)O[C@@H]1CC[C@H](c2cc(NC(=O)c3cnn(CCCCCCCCCc4cccc5c4n(C)c(=O)n5C4CCC(=O)NC4=O)c3)[nH]n2)C1 (some centres unmarked) [I-92]
DC50 [1]: 10 to 100 nM
DC50 [3]: 1000 to 5000 nM

Cc1cc(S(=O)(=O)NCCO[C@H]2CC[C@H](CN3CCC(c4ccc5c(c4)n(C)c(=O)n5C4CCC(=O)NC4=O)CC3)CC2)ccc1Nc1ncc2ccc(=O)n(C3CCCC3)c2n1 (some centres unmarked) [I-109]
DC50 [1]: < 10 nM
DC50 [2]: < 10 nM
DC50 [3]: 100 to 1000 nM

CC(C)NC(=O)O[C@@H]1CC[C@H](c2cc(NC(=O)c3cnn(CCCCCCCCCCCc4ccn5c(N6CCC(=O)NC6=O)cnc5c4)c3)[nH]n2)C1 [I-142]
DC50 [1]: 10 to 100 nM
DC50 [3]: > 5000 nM

CC(C)NC(=O)O[C@@H]1CC[C@H](c2cc(NC(=O)c3cnn(CCOCCOCCOCCCc4cccc5c4n(C)c(=O)n5C4CCC(=O)NC4=O)c3)n[nH]2)C1 (some centres unmarked) [I-72]
DC50 [1]: 10 to 100 nM
DC50 [3]: > 5000 nM

Cc1cc(S(=O)(=O)NCCO[C@H]2CC[C@H](N(C)CC3CCN(c4ccc5c(c4)n(C)c(=O)n5C4CCC(=O)NC4=O)CC3)CC2)ccc1Nc1ncc2ccc(=O)n(C3CCCC3)c2n1 (some centres unmarked) [I-117]
DC50 [1]: < 10 nM
DC50 [2]: < 10 nM
DC50 [3]: 100 to 1000 nM

CN[C@@H](C)C(=O)N[C@H](C(=O)N1CCC[C@H]1c1nc(C(=O)c2cccc(OCCCCCCCCCCCn3cc(C(=O)Nc4cc([C@H]5CC[C@@H](OC(=O)NC(C)C)C5)n[nH]4)cn3)c2)cs1)C1CCCCC1 [I-148, (1R,3S)-3-(5-(1-(11-(3-(2-((S)-1-((S)-2-cyclohexyl-2-((S)-2-(methylamino)propanamido)acetyl)pyrrolidin-2-yl)thiazole-4-carbonyl)phenoxy)undecyl)-1H-pyrazole-4-carboxamido)-1H-pyrazol-3-yl)cyclopentyl isopropylcarbamate]
DC50 [1]: 1000 to 5000 nM
DC50 [3]: 1000 to 5000 nM

Cc1cc(S(=O)(=O)NCCOC2CC3(C2)CN(CC#Cc2ccc4c(c2)n(C)c(=O)n4C2CCC(=O)NC2=O)C3)ccc1Nc1ncc2ccc(=O)n(C3CCCC3)c2n1 (centres unmarked) [I-126]
DC50 [1]: < 10 nM
DC50 [3]: 1000 to 5000 nM

Cc1cc(S(=O)(=O)NCCOCCOCCCc2ccc3c(c2)n(C)c(=O)n3C2CCC(=O)NC2=O)ccc1Nc1ncc2c(n1)N(C1CCCC1)C(=O)C21CC1 (centres unmarked) [I-150]
DC50 [1]: > 5000 nM
DC50 [3]: > 5000 nM

Cc1cc(S(=O)(=O)NCCOCCOCCCc2ccc3c(c2)n(C)c(=O)n3C2CCC(=O)NC2=O)ccc1Nc1ncc2cc(C(F)F)c(=O)n([C@@H]3CCC[C@@]3(C)O)c2n1 (some centres unmarked) [I-5]
DC50 [1]: < 10 nM
DC50 [3]: > 5000 nM

Cc1cc(S(=O)(=O)NCCOCCOCCOCCOCCCc2ccc3c(c2)n(C)c(=O)n3C2CCC(=O)NC2=O)ccc1Nc1ncc2cc(C(F)F)c(=O)n([C@@H]3CCC[C@@]3(C)O)c2n1 (some centres unmarked) [I-7]
DC50 [1]: < 10 nM
DC50 [3]: > 5000 nM

CC(C)NC(=O)O[C@@H]1CC[C@H](c2cc(CC(=O)c3cnn(CCOCCOCCOCCCc4ccc5c(N6CCC(=O)NC6=O)cncc5c4)c3)[nH]n2)C1 [I-73]
DC50 [1]: 100 to 1000 nM
DC50 [3]: > 5000 nM
